According to patent US20190375842A1, “CHECK POINT INHIBITION IN ORGAN FIBROSIS” (VANDERBILT UNIVERSITY, priority 2018, published 2019):

System: human lung fibroblasts/fibrocytes (HLF) co-cultured with sarcoidosis CD4+ T cells
Experiment: CD4+ T cell and human lung fibroblast (HLF) co-culture, collagen I production by flow cytometry
Type: cell-based
Conditions: after exposure to STATTIC
Description: The detection of increased collagen-1 production following co-culture of sarcoidosis PD-1+CD4+ cells supported an investigation of the effects of PD-1 pathway blockade on HLF collagen I production. Purified sarcoidosis CD4+ T cells at a final concentration of 2×10^6/mL were cultured overnight in the presence of α-PD-1, α-PD-L1 and α-PD-L2. HLFs were added the following day at a 1:10 ratio (HLF:T cell). […] Similar results were also observed for collagen I producing fibrocytes (CD45^+) that were cultured in the presence of sarcoidosis CD4+ T cells. There was a significant decline in collagen I production of 22% following PD-1 pathway blockade (p=0.0002) (FIG. 7E). Once again, these differences were only observed when HLF were cultured with sorted CD4+ T cells from sarcoidosis patients that had high baseline PD-1 expression on their CD4+ T cells (p=0.0002) (FIG. 7F) but not from patients with low PD-1 (p=0.10) (FIG. 7G).
LN2 frozen PBMC were thawed and readied for CD4+ T cell purification as aforementioned. 4-5×10^5 CD4+ T cells were plated on a 96-well plate at a final concentration of 2×10^6/mL in RPMI 1640-supplemented medium and then allowed to rest at 37° C. in 5% atmospheric CO2 for 2 hours prior to PD-1 pathway blockade or STATS inhibition using STATTIC. […]

**Q.** For `O=[N+]([O-])c1ccc2c(c1)S(=O)(=O)C=C2` [STATTIC], which “collagen 1 production by fibrocytes” value (sarcoidosis PD-1+CD4+ T cells co-cultured with fibrocytes) is on record?
**A.** Its value is “significant reduction”.

**Q.** What about the “collagen 1 production by fibroblasts” value (sarcoidosis PD-1+CD4+ T cells co-cultured with human lung fibroblasts) of the same compound?
**A.** The value was “significant reduction”.
